Assay results: patent publication US20190086390A1, “INDIRECT ASSESSMENT OF INSULIN RELEASE IN A CELL” (Board of Supervisors of Louisiana State University and …, priority 2016, published 2019)
Values joined by “and” are separate entries in the source; they are usually repeats but may differ in a detail not shown here. Equal entries are not always repeated. “Also recorded” adds a separate entry of the source.

Columns and labels:
Format in all cases: cell-based, rat
iNOS = iNOS mRNA (RT-PCR) and protein (immunoblot) abundance in 832/13 cells; details: 832/13 cells exposed to IL-1β
Excerpt: RNA isolation from cell lines and rat islets, cDNA synthesis, and analysis of real-time RT-PCR data has been described in detail previously (12). For all transcripts studied, the relative mRNA abundance was normalized to that of the housekeeping gene ribosomal S9. Primers used to detect transcript levels of ribosomal S9, iNOS, IL-1, and Nkx6.1 were designed using Primer3Plus software and are available upon request.
(§1) Cell lysis and extraction of cytoplasmic and nuclear protein fractions was performed using the NE-PER kit (Thermo Fisher Scientific) according to the manufacturer's directions. The protein concentration of the lysate was determined using the bicinchoninic acid assay (Thermo Fisher Scientific), using BSA as the standard. SDS-PAGE, transfer to polyvi-nylidene difluoride membranes, membrane blocking before antibody incubation, and downstream subsequent detection using a ChemiDoc imaging system (Bio-Rad) have been described previously (16). Antibodies detecting β-actin or tubulin were used as loading controls. Antibodies used were from the following sources: iNOS (Santa Cruz Biotechnology), (3-actin (Cell Signaling Technology), Ikα: (Santa Cruz Biotechnology), tubulin (Cell Signaling Technology), and Pdx-1 (Cell Signaling Technology). The antibody recognizing Nkx6.1 has been described (34). Immunoblot images were quantified using Image Lab software (Bio-Rad).

832/13 cells [1] = assay: Nitric oxide by EPR spectroscopy with (MGD)2Fe2+ spin trap; details: 1 ng/ml IL-1β 18 h
Procedure: The spin trap Af-methyl-d-glucamine dithiocarbamate-iron complex [(MGD)2-Fe^2+] was prepared fresh in each experiment by making stock solutions of 500 mM MGD and 100 mM Fe^2+ (from FeS04.7 H20) in ultrapure water under anaerobic conditions. A final concentration of 25 mM MGD and 5 mM Fe^2+ was introduced onto cells in culture using serum-free media with a 30-min incubation period. Supernatants were then collected for the measurements of the (MGD)2-iron-NO complex. All electron paramagnetic resonance (EPR) measurements were carried out in a quartz flat cell at room temperature. Samples were transferred directly into the flat cell, which was then placed into the cavity of a Bruker EMX Plus spectroscope. Typical instrumental conditions were as follows: 20 mW of microwave power, 5.0-G modulation amplitude, 1×10^5 gain, 0.163-s time constant, and 80-G scan range. Quantitation was carried out by measuring and comparing the first peak heights on the spectra.

832/13 cells [2] = assay: Glucose-stimulated insulin secretion (GSIS) in 832/13 cells, insulin ELISA; details: for decrease in GSIS: 1 ng/ml IL-1β
Procedure: (§2) 832/13 cells were grown in 12-well plates and treated as indicated. Glucose-stimulated insulin secretion (GSIS) assays were performed as described previously (29). Insulin secretion by cell lines into the media was measured using either the High Range Rat Insulin ELISA kit (Mercodia, Uppsala, Sweden) or by rat islets using the insulin radioimmunoassay (Siemens, Malvern, Pa.) according to the company directions. In addition, cells were lysed using M-PER lysis reagent (Thermo Fisher Scientific) to quantify total intracellular protein content via BCA assay (Thermo Fisher Scientific). Insulin secretion data were normalized to total protein to account for any differences in cell number between treatment groups. Incorporation of tritiated thymidine into DNA as a cellular index of proliferation was carried out as described (45).

832/13 cells [3] = assay: Live cell calcium imaging, glucose-induced calcium response (Calcium Green)
Procedure: 832/13 cells were plated into six-well plates containing poly-d-lysine-coated coverslips (Neuvitro, Vancouver, Wash.). At 50% confluence, cells were treated for 18 h with one of four experimental groups: 1 ng/ml […] alone, 1 mM I-NMMA alone, IL-1β+ I-NMMA, or normal growth media. Immediately prior to imaging, cells were preloaded with Calcium Green 1 AM (CG, C3012; Life Technologies) by transferring coverslips to a solution of 10|×M CG in 20% Pluronic F127 in DMSO (Life Technologies) made up in carbogenated (95% 02-5% C02) normal Krebs. The recipe for normal Krebs solution was (in mM) 124 NaCl, 25 NaHC03, 2 glucose, 3 KC1, 2 CaCl2, 1.5 NaH2P04, and 1 MgS04-7H20, which corrected to pH 7.4 with HCl. After incubation in the CG solution for 30 min, coverslips were transferred to carbogenated normal Krebs at 29° C.
Coverslips were transferred to a recording chamber on a fixed stage Zeiss Axioskop2 microscope equipped with a Perkin Elmer Ultra-view/Yokogawa C10 spinning disk laser confocal illuminator. Cells were illuminated with the 488 nm laser; CG-calcium fluorescence signals were collected at 509 nm. Cells were visualized with a X40 water immersion objective. Images were collected with a Hammamatsu Ocra-ER charge-coupled device camera. The confocal system, including image collection, was controlled by Perkin-Elmer Improvision software.
Cells on coverslips were constantly perfused with normal Krebs solution at 29° C. at a rate of 3 ml/min. After 10 min, the perfusion solution was switched to one containing 12 mM glucose and proportionally less sodium chloride to maintain osmolality. The 12 mM glucose challenge was applied for 5 min, followed by a 5 min washout period. Images of CG-labeled cells were collected continuously during the challenge period at a rate of 20/min, with each frame taking 1 s. Images were collected as TIFF stacks and processed using Nikon Elements AR software. Individual cells in the field were designated as regions of interest (ROI), and their fluorescence signal over time was captured. Background fluorescence was subtracted from the fluorescence signal of individual ROIs. The relative changes in cytoplasmic calcium in the cells were expressed as changes in fluorescence [(AF/F) %], where F is the intensity of the baseline fluorescence signal before stimulation and AF is the difference between the peak fluorescence intensity and the baseline signal. Therefore, magnitude of response was normalized for each individual ROI.

832/13 cells [4] = assay: Nitrite accumulation in culture media, Griess assay; details: IL-1β
Procedure: Nitrite in the cell culture media was measured as an index of NO production using the Griess assay kit (Promega, Madison, Wis.), whereas cellular reduction of the 3-(4,5-dimethylthiazol-2-yl)-5-(3-carboxymethoxyphenyl)-2-(4-sulfophe-nyl)-2H-tetrazohum, inner salt (MTS) dye was determined using the MTS 1 solution kit (Promega) according to the manufacturer's protocol.

832/13 cells [5] = assay: Tritiated thymidine incorporation into DNA (proliferation); details: IL-1β 18 h
Procedure: as §2

Pdx-1 = Pdx-1 protein abundance, immunoblot; details: 832/13 cells, IL-1β 4 h
Procedure: as §1

[6] = pretreated 18 h with IL-1β alone, 12 mM glucose

“IL-1β: proinflammatory cytokine purchased from Thermo Fisher Scientific, used at 1 ng/ml” was tested, and the “iNOS expression (transcript and protein)” value (iNOS) was “rapidly induced; also recorded: accumulates; also recorded: robust iNOS abundance”, the “nitric oxide production in response to IL-1β” value (832/13 cells [1]) was “robust production of nitric oxide” and the “decrease in GSIS” value (832/13 cells [2]; 6 h) was 40% and 36%. The “decrease in GSIS” value (832/13 cells [2]; 12 h) was 59%, the “time by which insulin secretion began to decrease” value (832/13 cells [2]; IL-1β) was ≤ 6 h and the “diminution in GSIS” value (832/13 cells [2]; IL-1β, associated with 13-fold increase in nitrite, time not given) was 54%. The “average response magnitude (change in fluorescence)” value (832/13 cells [3]; [6]) was 20%, the “cells responding to the glucose challenge” value (832/13 cells [3]; [6]) was 61% and the “reduction of responses relative to control group” value (832/13 cells [3]; pretreated with IL-1β alone) was 39%. For the same substance, the “increase in nitrite accrual” value (832/13 cells [4]; 6 h) was 5.5 fold, the increase in nitrite (832/13 cells [4]; time not given, associated with 54% diminution in GSIS) was 13 fold and the “ability to incorporate thymidine into DNA” value (832/13 cells [5]) was “reduced markedly”. For the same substance, the “amount of Pdx-1 protein” value (Pdx-1) was “unchanged”.
